Values after ≈ are worked out from the molar mass of the structure shown.
Key:
HT29 cells [1] = assay: MTT cell viability assay in HT29 cells; assay type: cell-based, human; details: for concentrations that greatly reduced cell viability in HT29 cells: 24 hours, MTT, Table 9; for IC50: Homo sapiens, HT-29, 24 h, read-out: IC50 on HT29 cells
Protocol: HT cells were treated with the diluted cucrubitacin E and I (100-1.56 μg/ml). After the cells were treated for 24 hours, cell viability was determined by MTT assay, which quantitatively measures the metabolic activity of living cells.
The effects of the extract of Aquilaria agallocha Roxb. hulls on cell toxicity in T24 cells (human bladder carcinoma cells), HT29 cells (human colon adenocarcinoma cells), HeLa cells (cervical carcinoma cells), AGS cells (gastric epithelial cancer cells) and Hep G2 lo cells (human hepatocellular liver carcinoma cells) were tested. The above-mentioned cells were treated with the extract of Aquilaria agallocha Roxb. hulls. The procedures of the cell toxicity test were the same as those mentioned in Example 5.

[2] = Partition coefficient between layers of a two-phase solvent system (HPLC peak area); assay type: physicochemical; details: Hexane-EtOAc—MeOH—H2O 12.24.16.9, from peak areas of lower and upper layer
P-388 leukemia cells = assay: MTT assay in P-388 leukemia cells; assay type: cell-based; details: for IC50: Mus musculus, P388, P-388 cells; for concentrations that inhibited cell proliferation in P-388 cells: Table 9
Protocol: HT cells were treated with the diluted cucrubitacin E and I (100-1.56 μg/ml). After the cells were treated for 24 hours, cell viability was determined by MTT assay, which quantitatively measures the metabolic activity of living cells. […] Please see Table 9.
In addition to HT29 cells, P-388 leukemia cells were also determined by MTT assay. […] Please see Table 9.

HT29 cells [3] = assay: Cell morphology of HT29 cells, Giemsa staining, optical microscope; assay type: cell-based, human; details: different concentrations, 24 hours, 10% Giemsa, FIG. 4
HT29 cells [4] = assay: Cell cycle distribution of HT29 cells by flow cytometry; assay type: cell-based, human; details: increasing concentrations, FIG. 5
Text: The cell cycle of treated cells was examined by flow cytometry.

[5] = Text: Sephadex LH-20 gel (1.5 cm i.d.×36 cm) was used in the molecular sieve chromatography and methanol was used as the mobile phase.

Compound | concentrations that greatly reduced cell viability in HT29 cells (HT29 cells [1]) | IC50 (HT29 cells [1]) [µg/mL] | partition coefficient [2] | IC50 (P-388 leukemia cells) [µg/mL] | concentrations that inhibited cell proliferation in P-388 cells (P-388 leukemia cells) | cell morphology of HT29 cells (HT29 cells [3]) | cell cycle distribution, sub-G1 population (HT29 cells [4]) | solubility, in words [5]
CC(=O)OC(C)(C)/C=C/C(=O)[C@](C)(O)C1[C@H](O)C[C@@]2(C)C3CC=C4C(C=C(O)C(=O)C4(C)C)[C@]3(C)C(=O)C[C@]12C (some centres unmarked) [Cucurbitacin E, cucurbitacin E] | above 14.1 μM | 14.1 (≈ 25.3 µM) | 0.90 | 6.5 (≈ 11.7 µM) | above 6.5 μM | the nucleus were squeezed and the chromatin was condensed | sub-G1 populations increased | 
CC(C)(O)/C=C/C(=O)[C@](C)(O)C1[C@H](O)C[C@@]2(C)C3CC=C4C(C=C(O)C(=O)C4(C)C)[C@]3(C)C(=O)C[C@]12C (some centres unmarked) [Cucurbitacin I, cucurbitacin I] | > 15.8 µM | 15.8 (≈ 30.7 µM) | 0.42 | 7.4 (≈ 14.4 µM) | > 7.4 µM | the nucleus were squeezed and the chromatin was condensed | sub-G1 populations increased | 
CC(=O)OC(C)(C)/C=C/C(=O)[C@](C)(O)C1[C@H](O)C[C@@]2(C)C3CC=C4C(C=C(O[C@@H]5OC(CO)[C@@H](O)C(O)C5O)C(=O)C4(C)C)[C@]3(C)C(=O)C[C@]12C (some centres unmarked) [cucurbitacin E glucoside] |  |  | 0.05 |  |  |  |  | 
CC(C)(O)/C=C/C(=O)[C@](C)(O)C1[C@H](O)C[C@@]2(C)C3CC=C4C(C=C(O[C@@H]5OC(CO)[C@@H](O)C(O)C5O)C(=O)C4(C)C)[C@]3(C)C(=O)C[C@]12C (some centres unmarked) [cucurbitacin I glucoside] |  |  | 0.03 |  |  |  |  | 
O=c1c2cc(O)c(O)cc2oc2cc(O)c([C@@H]3O[C@H](CO)[C@@H](O)[C@H](O)[C@H]3O)c(O)c12 [mangiferin] |  |  |  |  |  |  |  | hard to dissolve in methanol

From patent publication US8168238B2, “Extracts of Aquilaria hulls and use thereof in the treatment of cancer” (priority 2009, dated 2012)
